Reference: patent publication US11203770B2, “Methods for producing caprylic acid and/or caprylate” (Cornell University, priority 2016, dated 2021)

Tests used:
reactor microbiome = test: inhibition of the chain-elongating reactor microbiome in the continuously fed upflow anaerobic filter; format: cell-based; conditions: for high residual concentration that inhibits microbial activity: bioreactor broth, mildly acidic pH, n-caprylic acid as undissociated acid
Protocol: Experimental. Continuously fed bioreactor system. An upflow anaerobic filter was used with constant bioreactor broth recycling through an in-line membrane liquid-liquid extraction (i.e. pertraction) system (FIG. 8). The bioreactor was a vertically oriented cylinder, which was made of Plexiglas®, with an inner diameter of 6 cm. The total volume was 0.90 L, but […]1 packing material (Evolution Aqua, Wigan, United Kingdom) was added, resulting in a working volume of 0.70 L. […] A pH probe (Mettler 405-[…], Columbus, Ohio, USA) was mounted at the top of the bioreactor. Automated pH control of the bioreactor broth was maintained with a controller (Eutech Instruments alpha-pH800, Vernon Hills, Ill., USA) and a corresponding acid addition pump ([…] 913, Bradenton, Fla., USA). […] The effluent continuously exited the bioreactor via an overflow line connected to the top of the bioreactor. The exit of the overflow line was submerged within a secondary effluent reservoir. An inverted funnel was used to collect the biogas within the bioreactor and was connected to a flow meter (Ritter MGC-1, Bochum, Germany). In addition, a gas-sample septum and a bubbler were placed in the gas collection system. A sampling port for biomass samples was placed halfway up the vertically oriented bioreactor. Periods for the bioreactor study. This bioreactor was divided into two phases: I) a start-up phase with continuous feeding (with the product extraction system on or off); and II) a high n-caprylate productivity phase (with continuous feeding and the product extraction system on). Each phase was then divided into several distinct operating periods. From period to period, several operating parameters were varied, including the: organic loading rate (OLR); HRT; bioreactor pH; and operation with or without product extraction (Table 1). Each operating period was operated for at least five HRT periods, and average bioreactor loading rates and concentrations were reported. During Period 1 in Phase I (Days 0-15), pre-washed inoculum was added to the upflow anaerobic filter after which a continuous feeding strategy was initiated. […] The bioreactor was re-inoculated on Day 15 of Period 2 in Phase I (Days 15-54) with pre-washed inoculum, and then again on Day 54 of Period 3 of Phase I (Days 54-64) with non-washed inoculum. This last inoculation carried some carboxylates from the inoculation bioreactor. During Period 4 of Phase I (Days 64-80), the product extraction was turned off. […] In addition, we increased the OLR from 1.8 to 3.8 g COD/L-d (Table 2). Day 98 represented the start of Phase II (Period 6; Days 98-128), by switching on the product extraction system. Next, we increased the OLRs in a step-wise fashion during 4 out of the next 5 periods in Phase II. […]

[1] = cited from earlier work
methanogens = test: toxicity to methanogens in small serum bottles; format: cell-based; conditions: concentrations present in the bioreactor
Text: Thus, at a pH of 7.0 we would have anticipated a methanogenic anaerobic digester rather than a chain elongating bioreactor. […] This explains why we can chain elongate at the higher pH levels without adding a methanogenic-inhibiting compound such as bromo-ethanesulfonate (BrES). […] This substantiates the claim that we can operate a chain elongating bioreactor sustainably at a pH level of 7.0.

SMILES	residual ethanol concentration at which microbial inhibition was reached (reactor microbiome; Period 11, bioreactor broth)	high residual concentration that inhibits microbial activity (reactor microbiome)	solubility limit of the undissociated acid [1]	toxic concentration, times lower than n-caproic acid (reactor microbiome; undissociated acids, toxicity to the community)	toxicity of undissociated acid to methanogens (methanogens)
CCO [ethanol]	~28 g COD/L	~300 mM			
CCCCCC(=O)O [n-caproic acid]			93 mM		
CCCCCCCC(=O)O [n-caprylic acid]		0.62 mM		approximately 10 ×	toxic
